19 compounds from ChEMBL document CHEMBL1743341, “Cytochrome p450 enzymes mechanism based inhibitors: common sub-structures and reactivity” (Curr Drug Metab, 2005) can be followed below.

For one data set, the target named is Cytochrome P450 3A5 (Homo sapiens, UniProt P20815). As to the kind of experiment: Mechanism based inhibition of human cytochrome P450 3A5. Format: ADME.
In data set [1] the target is T1, Cytochrome P450 3A4 (Homo sapiens, UniProt P08684). The experiment in a line: Mechanism based inhibition of human cytochrome P450 3A4 measured by lovastatin 6'-beta hydroxylase activity. Format: ADME.
T1 sequence (P08684 whole entry): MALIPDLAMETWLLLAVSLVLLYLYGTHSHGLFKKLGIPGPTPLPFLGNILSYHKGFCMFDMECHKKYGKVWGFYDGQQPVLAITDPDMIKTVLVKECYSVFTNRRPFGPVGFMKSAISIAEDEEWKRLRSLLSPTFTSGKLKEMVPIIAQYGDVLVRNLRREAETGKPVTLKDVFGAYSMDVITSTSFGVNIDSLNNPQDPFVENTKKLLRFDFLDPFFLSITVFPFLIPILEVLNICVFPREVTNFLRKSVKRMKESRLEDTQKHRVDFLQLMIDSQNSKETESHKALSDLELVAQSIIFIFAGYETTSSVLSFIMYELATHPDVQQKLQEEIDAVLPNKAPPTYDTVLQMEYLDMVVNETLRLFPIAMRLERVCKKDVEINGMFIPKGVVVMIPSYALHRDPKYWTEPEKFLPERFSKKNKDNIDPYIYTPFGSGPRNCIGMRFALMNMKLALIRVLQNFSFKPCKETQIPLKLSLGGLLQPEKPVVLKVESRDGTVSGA
In data set [2] the target is T2, Cytochrome P450 2D6 (Homo sapiens, UniProt P10635). As to the kind of experiment: (§1) Mechanism based inhibition of human cytochrome P450 2D6 measured by dextromethorphan O-demethylation using human liver microsomes. It is filed as ADME, Microsome. In general terms: Microsomes from liver hold many membrane-bound enzymes, among them those of drug oxidation.
T2 sequence (P10635 whole entry): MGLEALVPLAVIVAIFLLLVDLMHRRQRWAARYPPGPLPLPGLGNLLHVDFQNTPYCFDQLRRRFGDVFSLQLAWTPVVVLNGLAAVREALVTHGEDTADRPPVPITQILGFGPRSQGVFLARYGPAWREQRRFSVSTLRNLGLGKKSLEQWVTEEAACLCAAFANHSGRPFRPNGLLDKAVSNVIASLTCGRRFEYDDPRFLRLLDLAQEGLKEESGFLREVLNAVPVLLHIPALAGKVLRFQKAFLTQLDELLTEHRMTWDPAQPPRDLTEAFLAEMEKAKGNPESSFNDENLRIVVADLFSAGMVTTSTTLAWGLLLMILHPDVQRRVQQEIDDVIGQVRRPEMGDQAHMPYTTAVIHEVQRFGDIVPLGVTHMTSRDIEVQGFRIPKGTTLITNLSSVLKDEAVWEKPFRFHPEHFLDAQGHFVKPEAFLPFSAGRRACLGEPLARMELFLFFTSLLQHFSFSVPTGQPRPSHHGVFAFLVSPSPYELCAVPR
Data set [3] deals with T3, CYP2D6 (Homo sapiens, UniProt P10635). The data set is described as §1. It is filed as ADME, Microsome. The conditions noted are these: human, human liver microsomes, probe dextromethorphan.
T3 sequence (P10635 whole entry): as above
For the next data set, the target named is T4, Cytochrome P450 1A1 (Homo sapiens, UniProt P04798).
T4 sequence (P04798 whole entry): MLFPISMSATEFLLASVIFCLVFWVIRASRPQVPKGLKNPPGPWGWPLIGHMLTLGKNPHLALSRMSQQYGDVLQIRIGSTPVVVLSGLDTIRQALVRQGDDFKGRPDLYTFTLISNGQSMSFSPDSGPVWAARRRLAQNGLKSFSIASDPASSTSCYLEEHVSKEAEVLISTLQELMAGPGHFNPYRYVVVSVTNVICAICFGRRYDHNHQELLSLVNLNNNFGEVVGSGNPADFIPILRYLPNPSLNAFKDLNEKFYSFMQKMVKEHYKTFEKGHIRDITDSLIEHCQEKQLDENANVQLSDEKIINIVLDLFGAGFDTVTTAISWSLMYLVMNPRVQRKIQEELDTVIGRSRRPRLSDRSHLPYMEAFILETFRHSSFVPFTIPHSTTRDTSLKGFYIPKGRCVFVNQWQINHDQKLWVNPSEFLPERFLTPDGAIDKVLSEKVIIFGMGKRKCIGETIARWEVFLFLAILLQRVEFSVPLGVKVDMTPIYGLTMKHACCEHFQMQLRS
As to the kind of experiment: Mechanism based inhibition of human cytochrome P450 1A1 measured by 7-ethoxyresorufin O-deethylation (EROD). It is filed as ADME.

The target of a further data set is Cytochrome P450 2C9 (Homo sapiens, UniProt P11712). As to the kind of experiment: Mechanism based inhibition of human cytochrome P450 2C9 measured by diclofenac 4-hydroxylation. It is filed as ADME.
Sequence of Cytochrome P450 2C9 (P11712 whole entry): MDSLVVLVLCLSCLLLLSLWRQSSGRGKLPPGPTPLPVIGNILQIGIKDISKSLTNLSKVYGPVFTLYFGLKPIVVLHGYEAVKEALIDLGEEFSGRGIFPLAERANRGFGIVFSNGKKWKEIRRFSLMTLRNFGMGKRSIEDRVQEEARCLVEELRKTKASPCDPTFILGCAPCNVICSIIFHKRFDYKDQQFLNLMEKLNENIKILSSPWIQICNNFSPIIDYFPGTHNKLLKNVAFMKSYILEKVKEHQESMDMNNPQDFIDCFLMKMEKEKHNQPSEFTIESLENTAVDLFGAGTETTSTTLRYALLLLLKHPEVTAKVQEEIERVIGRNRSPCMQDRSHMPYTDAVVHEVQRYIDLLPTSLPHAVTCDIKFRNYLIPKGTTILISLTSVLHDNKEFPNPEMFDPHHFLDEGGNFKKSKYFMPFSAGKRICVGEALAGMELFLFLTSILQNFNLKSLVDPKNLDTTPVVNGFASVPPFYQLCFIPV
Data set [4] addresses T5, Cytochrome P450 1A2 (Homo sapiens, UniProt P05177).
T5 sequence (P05177 whole entry): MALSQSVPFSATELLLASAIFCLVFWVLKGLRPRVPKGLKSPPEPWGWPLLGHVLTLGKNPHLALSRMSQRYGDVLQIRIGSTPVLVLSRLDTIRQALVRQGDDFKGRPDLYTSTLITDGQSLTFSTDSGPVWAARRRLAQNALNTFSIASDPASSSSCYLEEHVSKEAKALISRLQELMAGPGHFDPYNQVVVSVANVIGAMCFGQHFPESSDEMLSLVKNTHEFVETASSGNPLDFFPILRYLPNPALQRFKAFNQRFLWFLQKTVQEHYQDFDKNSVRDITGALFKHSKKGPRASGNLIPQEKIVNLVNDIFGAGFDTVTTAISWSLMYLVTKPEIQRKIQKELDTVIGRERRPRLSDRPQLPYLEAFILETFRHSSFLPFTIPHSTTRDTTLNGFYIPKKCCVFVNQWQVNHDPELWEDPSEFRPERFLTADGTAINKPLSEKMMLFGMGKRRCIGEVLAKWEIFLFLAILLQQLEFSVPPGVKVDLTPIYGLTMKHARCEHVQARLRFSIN
As to the kind of experiment: (§2) Mechanism based inhibition of human cytochrome P450 1A2 measured by 7-ethoxyresorufin O-deethylation (EROD). It is filed as ADME.

Data set [5] deals with T1, Cytochrome P450 3A4. As to the kind of experiment: Mechanism based inhibition of human cytochrome P450 3A4 measured by testosterone 6-beta hydroxylation. It is filed as ADME.
For data set [6], the target named is T6, Cytochrome P450 2E1 (Homo sapiens, UniProt P05181). As to the kind of experiment: (§3) Mechanism based inhibition of human cytochrome P450 2E1. Format: ADME.
T6 sequence (P05181 whole entry): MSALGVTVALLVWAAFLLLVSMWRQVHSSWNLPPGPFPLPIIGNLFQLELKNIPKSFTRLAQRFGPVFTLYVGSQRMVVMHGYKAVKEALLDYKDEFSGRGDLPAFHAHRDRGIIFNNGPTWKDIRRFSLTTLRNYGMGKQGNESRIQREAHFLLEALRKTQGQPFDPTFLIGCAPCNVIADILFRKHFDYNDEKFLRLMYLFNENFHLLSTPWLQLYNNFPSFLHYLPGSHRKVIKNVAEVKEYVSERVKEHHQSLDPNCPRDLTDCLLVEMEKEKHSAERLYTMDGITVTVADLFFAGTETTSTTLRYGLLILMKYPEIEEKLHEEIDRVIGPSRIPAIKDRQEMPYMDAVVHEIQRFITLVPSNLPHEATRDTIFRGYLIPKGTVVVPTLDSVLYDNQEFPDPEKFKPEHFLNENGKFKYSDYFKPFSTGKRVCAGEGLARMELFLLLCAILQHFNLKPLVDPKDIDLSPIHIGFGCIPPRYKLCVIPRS
The target of data set [7] is T6, Cytochrome P450 2E1. The description is as §3. Format: ADME. The source holds these as a separate data set.
In data set [8] the target is T1, Cytochrome P450 3A4. The experiment in a line: (§4) Mechanism based inhibition of human cytochrome P450 3A4. It is filed as ADME.
For a further data set, the target named is CYP3A4 (Homo sapiens, UniProt P08684). The description is as §4. Format: ADME. The conditions noted are these: human.
Sequence of CYP3A4 (P08684 whole entry): as the sequence (P08684 whole entry) above
In data set [9] the target is T7, Cytochrome P450 2B1 (Rattus norvegicus, UniProt P00176).
T7 sequence (P00176 whole entry): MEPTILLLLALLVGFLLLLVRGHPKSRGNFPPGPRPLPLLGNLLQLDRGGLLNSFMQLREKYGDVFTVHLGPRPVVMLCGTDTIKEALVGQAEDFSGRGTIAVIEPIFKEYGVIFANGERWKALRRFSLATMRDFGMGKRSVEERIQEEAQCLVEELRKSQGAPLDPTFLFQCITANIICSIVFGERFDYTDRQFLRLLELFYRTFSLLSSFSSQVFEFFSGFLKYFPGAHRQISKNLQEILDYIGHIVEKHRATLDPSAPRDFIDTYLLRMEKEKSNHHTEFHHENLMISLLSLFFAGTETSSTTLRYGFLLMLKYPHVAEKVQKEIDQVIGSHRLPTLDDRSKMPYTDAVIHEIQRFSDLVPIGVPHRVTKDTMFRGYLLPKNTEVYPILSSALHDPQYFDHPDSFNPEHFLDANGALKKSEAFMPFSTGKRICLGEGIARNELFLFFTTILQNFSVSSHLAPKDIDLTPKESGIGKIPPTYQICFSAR
As to the kind of experiment: (§5) Mechanism based inhibition of rat cytochrome P450 CYP2B1 measured by 7-EFC O-deethylation activity. It is filed as ADME.

For a further data set, the target named is T8, CYP2B1 (Rattus norvegicus, UniProt P00176).
T8 sequence (P00176 whole entry): T7 sequence (P00176 whole entry)
Described as §5. Format: ADME. The conditions noted are these: rat, probe 7-EFC (O-deethylation).

The target in data set [10] is T7, Cytochrome P450 2B1. As to the kind of experiment: Mechanism based inhibition of rat cytochrome P450 CYP2B1. It is filed as ADME. The conditions noted are these: rat.
Data set [11] has as its target T1, Cytochrome P450 3A4. As to the kind of experiment: Mechanism based inhibition of human cytochrome P450 3A4, partition ratio. Format: ADME.
Data set [12] concerns the target T1, Cytochrome P450 3A4. The experiment in a line: Mechanism based inhibition of human cytochrome P450 3A4 measured by nifedipine oxidation, omeprazole 3-hydroxylation and omeprazole sulfoxydation. Format: ADME.
Data set [13] concerns the target T2, Cytochrome P450 2D6. As to the kind of experiment: Mechanism based inhibition of human cytochrome P450 2D6 measured by […] 1'-hydroxylation. It is filed as ADME.
The target in data set [14] is T1, Cytochrome P450 3A4. The experiment in a line: Mechanism based inhibition of human cytochrome P450 3A4 measured in vivo. Format: ADME, organism-based.
For data set [15], the target named is T2, Cytochrome P450 2D6. As to the kind of experiment: (§6) Mechanism based inhibition of human cytochrome P450 2D6 measured by dextromethorphan O-demethylation. Format: ADME.
For data set [16], the target named is T3, CYP2D6. The data set is described as §6. The conditions noted are these: human, probe dextromethorphan. It is filed as ADME.
Data set [17] concerns the target T5, Cytochrome P450 1A2. The description is as §2.

Sequence of Cytochrome P450 3A5 (P20815 whole entry): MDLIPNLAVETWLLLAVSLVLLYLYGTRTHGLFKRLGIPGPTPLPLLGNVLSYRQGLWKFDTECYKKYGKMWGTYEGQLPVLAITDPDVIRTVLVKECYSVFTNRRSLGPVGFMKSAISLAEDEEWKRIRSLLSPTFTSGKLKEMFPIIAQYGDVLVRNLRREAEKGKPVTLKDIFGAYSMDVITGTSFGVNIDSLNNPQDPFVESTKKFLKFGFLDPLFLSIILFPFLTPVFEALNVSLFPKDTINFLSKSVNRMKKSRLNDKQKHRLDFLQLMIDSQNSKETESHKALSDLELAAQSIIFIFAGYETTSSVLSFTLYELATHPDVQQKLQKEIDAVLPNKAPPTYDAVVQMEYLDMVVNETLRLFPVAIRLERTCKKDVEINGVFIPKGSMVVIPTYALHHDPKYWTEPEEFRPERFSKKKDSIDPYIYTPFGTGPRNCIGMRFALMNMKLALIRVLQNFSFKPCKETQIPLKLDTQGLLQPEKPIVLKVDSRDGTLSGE

Consider `CC(C)(C)NC(=O)[C@@H]1C[C@@H]2CCCC[C@@H]2CN1C[C@@H](O)[C@H](Cc1ccccc1)NC(=O)[C@H](CC(N)=O)NC(=O)c1ccc2ccccc2n1`, for which the mechanism based inhibition entry on Cytochrome P450 3A5 is reported as “Cytochrome P450 mechanistic inhibitor: PMID 15523003”. Regarding `O=C(NC(/C=C/S(=O)(=O)c1ccccc1)CCc1ccccc1)C(Cc1ccccc1)NC(=O)N1CCOCC1` (stereo unspecified), the mechanism based inhibition result on Cytochrome P450 3A4 [1] was “Cytochrome P450 mechanistic inhibitor: PMID 11038163”.

For orientation: kinact means the maximal first-order rate at which the target is inactivated. On Cytochrome P450 2D6 [2], `Fc1cnc(N2CCN(CC3=NC(c4ccccc4)=NC3)CC2)nc1` gave a Ki of 4800 nM. At CYP2D6 [3], the kinact was 0.00233 s⁻¹. Take `CCOC(=O)C1=C(C)N=C(C)/C(=C(/O)OCC)C1CC` (stereo unspecified): the mechanism based inhibition entry at Cytochrome P450 1A1, at Cytochrome P450 2C9, at Cytochrome P450 1A2 [4] and at Cytochrome P450 3A4 [5] was “Cytochrome P450 mechanistic inhibitor: PMID 9107543” throughout.

`CC(C)(C)NC(=O)[C@@H]1CN(Cc2cccnc2)CCN1C[C@@H](O)C[C@@H](Cc1ccccc1)C(=O)N[C@H]1c2ccccc2C[C@H]1O.O`: the mechanism based inhibition result at Cytochrome P450 3A5 is given as “Cytochrome P450 mechanistic inhibitor: PMID 15523003”. As for `CCN(CC)C(=S)SSC(=S)N(CC)CC`, the mechanism based inhibition result on Cytochrome P450 2E1 [6] is “Cytochrome P450 mechanistic inhibitor: PMID 9695717”; on Cytochrome P450 2E1 [7], “Cytochrome P450 mechanistic inhibitor: PMID 1664256”; at Cytochrome P450 2E1 [7] (human), “Cytochrome P450 mechanistic inhibitor: PMID 10805064”.

Regarding `CCc1c2c(nc3ccc(O)cc13)-c1cc3c(c(=O)n1C2)COC(=O)[C@]3(O)CC` [7-ETHYL-10-HYDROXYCAMPTOTHECIN], the Ki at Cytochrome P450 3A4 [8] worked out at 26000 nM. At CYP3A4, the inactivation rate constant (kinact) is 0.00167 s⁻¹. On Cytochrome P450 2B1 [9], `C#CCN(C)CCCOc1ccc(Cl)cc1Cl` [CLORGILINE] registered a Ki of 1500 nM. Further, the maximal inactivation rate constant (kinact) at CYP2B1 was 0.00467 s⁻¹. In the case of `CC(C)(OO)c1ccccc1` [CUMENE HYDROPEROXIDE], on Cytochrome P450 2B1 [10], the mechanism based inhibition result is reported as “Cytochrome P450 mechanistic inhibitor: PMID 8416964”. For `CC(C)Nc1cccnc1N1CCN(C(=O)c2cc3cc(NS(C)(=O)=O)ccc3[nH]2)CC1` [DELAVIRDINE], the Partition ratio on Cytochrome P450 3A4 [11] came to 41.

In turn, `C/C(=C\COc1c2ccoc2cc2oc(=O)ccc12)CCC(OC(C)(C)C(O)CC/C(C)=C/COc1c2ccoc2cc2oc(=O)ccc12)C(C)(C)O` (stereo unspecified) [FC726] gave a Ki at Cytochrome P450 3A4 [12] of 130 nM. The mechanism based inhibition entry on Cytochrome P450 3A4 [5] was “Cytochrome P450 mechanistic inhibitor: PMID 10859150”. Consider `COc1ccc2c(c1OC)C(=O)O[C@@H]2[C@H]1c2cc3c(cc2CCN1C)OCO3` [HYDRASTINE], for which the mechanism based inhibition result on Cytochrome P450 2C9 and on Cytochrome P450 2D6 [13] was “Cytochrome P450 mechanistic inhibitor: PMID 14570772” in each case.

In the case of `CN1CCN(C(=O)N[C@@H](Cc2ccccc2)C(=O)N[C@H](/C=C/S(=O)(=O)c2ccccc2)CCc2ccccc2)CC1` [K-777], the mechanism based inhibition entry on Cytochrome P450 3A4 [1] was “Cytochrome P450 mechanistic inhibitor: PMID 11038163”.

With `CN(C)c1ccc([C@H]2C[C@@]3(C)[C@@H](CC[C@@]3(O)/C=C\CO)[C@@H]3CCC4=CC(=O)CCC4=C32)cc1` [LILOPRISTONE], the mechanism based inhibition result at Cytochrome P450 3A4 [14] is on record as “Cytochrome P450 mechanistic inhibitor: PMID 9697076”. The compound `CCN(CC)CCNC(=O)c1cc(Cl)c(N)cc1OC` [METOCLOPRAMIDE] yielded a Ki on Cytochrome P450 2D6 [15] of 960 nM. Moreover, on CYP2D6 [16], the inactivation rate constant (kinact) is 0.000433 s⁻¹. With `CN(C)c1ccc([C@H]2C[C@]3(C)[C@@H](CC[C@]3(O)CCCO)[C@@H]3CCC4=CC(=O)CCC4=C32)cc1` [ONAPRISTONE], the mechanism based inhibition entry on Cytochrome P450 3A4 [14] was “Cytochrome P450 mechanistic inhibitor: PMID 9697076”. `C=CCC1(C(C)CCC)C(=O)NC(=O)NC1=O` (stereo unspecified) [SECOBARBITAL]: the mechanism based inhibition entry on Cytochrome P450 2B1 [10] is “Cytochrome P450 mechanistic inhibitor: PMID 8728507”. Compound `C#CCN(C)[C@H](C)Cc1ccccc1` [SELEGILINE] returned a Ki at Cytochrome P450 2B1 [9] of 1050 nM. Moreover, at CYP2B1, the kinact was 0.00383 s⁻¹. As to `Nc1c2c(nc3ccccc13)CCCC2` [TACRINE], on Cytochrome P450 1A2 [17], the Ki was determined as 1940 nM.
